# According to US12385042B2, “Cell-penetrating peptides” (VECTIOPEP OÜ, priority 2019, dated 2025):
# Where a SMILES comes first, the peptide text is derived from it. Bridges are numbered along the chain shown (N, C = ends). Roman numbers before positions name the chains, in order. [ ]: non-standard residue; d: D form. The star is where a group is joined. Stearoyl = CCCCCCCCCCCCCCCCCC(=O)*; Orn = NCCC[C@H](N)C(=O)O
# How the values were obtained:
# [1] = tested on: U87 MG-luc2 human glioma cells, stably expressing luc2; experiment: Luciferase gene downregulation by CPP/siRNA (siLuc2) complexes; type: cell-based
# Outline: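 U87-luc2 cells in serum-containing medium got peptide/siLuc2 complexes formed in water (pH 5.3-6.3, MR 40:1, 1 h RT) at 25 nM siRNA for 4 h at 37 °C, then 20 h more. Lysate luminescence normalized to protein; in other runs, MR30/10 nM in HEPES-FBS, or varied MR at 50 nM, vs untreated (100%).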
# [2] = tested on: CHO stably expressing green fluorescent protein (GFP); experiment: GFP gene downregulation by CPP/siGFP complexes (lysate fluorescence, FACS, confocal); type: cell-based
# Description: For assessing the siRNA mediated RNAi, CHO-GFP or U87-luc2 cells (5×10^5 cells per well) were seeded on a 24-well plate a day prior to the experiment and grown in serum containing media. On experiment day, prior to adding pre-formed complexes ( 1/10th of the final volume per well), media was replaced with fresh serum containing medium.
# For complex formation, peptide was mixed with luc2 siRNA (sense 5′-[…]-3′ (SEQ ID NO:7), antisense 5′-[…] 3′ (SEQ ID NO:8), Metabion, Germany) or with siRNA against GFP (5′-[…] (SEQ ID NO:9), 3′-[…] (SEQ ID NO:10)) in mQ water (pH 5.3-6.3) using peptide to siRNA molar ratios (MR is the ratio of peptide to siRNA) […] and incubated at RT for 1 h. For siLuc2, the final concentration in media was 25 nM and for siGFP 100 nM. Cells were co-incubated with complexes for 4 h (37° C., 5% CO2), thereafter fresh serum containing media was added and followed by further incubation (20 h for siLuc2 or 44 h for siGFP complexes). Luciferase gene downregulation was measured from cell lysates with Promega luciferase assay system (Promega, Sweden) in combination with GLOMAX 96 microplate luminometer equipped with GLOMAX 1.9.2 software (Promega). GFP was measured after treatment from cell lysates on black 96-well plates by measuring total fluorescence (Symergy MX, BioTek Instruments, USA equipped with Gen5 1.10 software). The results were normalized to the protein content of each sample (DC Protein Assay, BioRad, USA).
# For flow cytometry analysis (FACS) analysis CHO-GFP cells were seeded and treated as described previously. After incubation, cells were washed with 1× PBS and detached from plates with trypsin-EDTA (0.25%), and re-suspended in PBS supplemented with FBS (5%) and transferred to transparent U-bottom 96-well plates. FACS was carried out with BD LSR II flow cytometer (BD Biosciences, San Jose, CA, USA) equipped with a 488 nm argon laser. Population of viable cells was determined from scatter plot: forward scattered plot (FSC) vs. side scattered light (SSC) plot. A minimum of 10,000 events from the viable cell population per sample were analyzed using BD FACS Diva software. Results are shown as the population with GFP signal lower than that of 0.1% of untreated cells.
# For confocal microscopy 2×10^5 cells per chamber were seeded on NUNC 8-chamber plates. After treatment with complexes (25 ul of pre-formed CPP/siRNA complexes added to cells in 225 ul serum containing media), incubated (48 h) and GFP florescence images of cells were captured using confocal microscope Zeiss LSM 710 and excitation at 488 nm (493-616 filter).
# [3] = Fluorescent dye (PicoGreen) intercalation and heparin displacement assay of CPP/siRNA complexes; type: physicochemical
# Description: Complexation of siRNA and CPPs was assessed by Quant-iT™ PicoGreen® (PG) (Thermo Fisher Scientific, USA) assay in mQ water. Complexes were prepared as described previously, following addition of diluted PG. For detection, complexes (⅕ of volume), water (3/5) and PG (1/5) working dilution was incubated for 5 minutes and fluorescence was measured by fluorimeter (λex=492 nm, λem=535 nm) (SynergyMx, BioTek). For heparin displacement, instead of water, heparin salt solution at different concentrations were used and complexes incubated at 37° C. for 30 min before addition of PG dilution. Complex formation was also confirmed by gel electrophoresis (details in section 2.11).
# U87 cells = experiment: MTS toxicity assay; type: cell-based, human
# Description: Cell proliferation was determined with the CellTiter 96® Aqueous Non-Radioactive Cell Proliferation Assay (MTS) (Promega Biotech AB, Sweden) according to the manufacturer's instructions. For this 1×10^5 U87 cells were seeded 1 day prior to experiment on transparent 96-well plates. On experiment day, media was replaced with 90 ul of fresh media and to the cells complexes formed at MR30 (both with 25 nM and 100 nM final siRNA concentrations) or free peptide at the range of 0.5-4 uM final concentrations were added. Cells were treated with complexes for 20 h. MTS was added according to the manufacturer's protocol. The absorbance of formazan product was measured at 490 nm with Tecan Sunrise microplate absorbance reader (Tecan Group Ltd, Switzerland) and percentage of viable cells was calculated using GraphPad Prism software 5.0 (Graphpad Software, CA, USA).
structure (smiles),measurement,setting,value
CCCCCCCCCCCCCCCCCC(=O)N[C@@H](Cc1c[nH]cn1)C(=O)N[C@@H](Cc1c[nH]cn1)C(=O)N[C@@H](Cc1c[nH]cn1)C(=O)N[C@@H](Cc1c[nH]cn1)C(=O)N[C@@H](Cc1c[nH]cn1)C(=O)N[C@@H](Cc1c[nH]cn1)C(=O)NCC(=O)NCCC[C@H](N)C(=O)N[C@H](C(=O)N[C@@H](CC(C)C)C(=O)N[C@@H](CC(C)C)C(=O)N[C@@H](CCCCN)C(=O)N[C@@H](C)C(=O)N[C@@H](CC(C)C)C(=O)N[C@@H](CCCCN)C(=O)N[C@@H](C)C(=O)N[C@@H](CC(C)C)C(=O)N[C@@H](C)C(=O)N[C@@H](CCCCN)C(=O)N[C@@H](C)C(=O)N[C@H](C(=O)N[C@@H](CC(C)C)C(N)=O)[C@@H](C)CC)[C@@H](C)CC [NF704] (I: H-[Orn]ILLKALKALAKAIL-NH2 / II: Stearoyl-HHHHHHG; amide I:1-II:C),"Red (%) (reduction, based on remaining luminescence on U87 cells post-treatment)","[1]; CPP/siRNA complexes, siRNA against luciferase",82%
same,remaining reporter activity,"[1]; molar ratio 30 (MR30, peptide to siRNA), untreated cells 100%",19%
same,"cells with downregulated reporter gene (GFP signal below threshold), FACS","[2]; CHO-GFP, CPP/siGFP complexes",40%
same,"downregulation of GFP (average, cell lysate fluorescence)",[2]; siGFP 100 nM,lower efficiency than H6-C20
same,accessibility of siRNA in complexes (dye intercalation),"[3]; MR30, no heparin",low accessibility of siRNA
same,stability of complexes to heparin displacement (in words),[3]; complexes pre-formed at MR30,not as resistant to heparin displacement as H6^1-C20
same,concentration at which free peptide is toxic to cells (MTS),U87 cells,10 µM
